Test results reported in patent US20250313563A1, “GLYCOGEN SYNTHASE KINASE 3 INHIBITORS AND USES THEREOF” (The Broad Institute, Inc., priority 2022, published 2025).
Where two headings read alike, the source gives them in different places.

What was measured:
[1] = test system: β-catenin nuclear translocation in SH-SY5Y cells; assay: β-catenin translocation assay; format: cell-based
Experimental: SH-SY5Y cells were seeded into a 96-well CellCarrier Ultra (Perkin Elmer) plate at a density of 1×10^5 cells/ml in complete DMEM. Sixteen hours following plating, media was changed to DMEM with 2% serum, and compound was added with a D300e Digital Dispenser (Tecan) for an incubation time of six hours. After compound incubation, media was removed, and cells were fixed with 4% PFA for 10 minutes at room temperature. Each well was washed three times with PBS-T and then blocked with buffer (1×PBS with 5% Normal Goat Serum and 0.3% Triton X-100) for 30 minutes at room temperature. β-Catenin primary antibody (Cell Signaling #8480) was added at 1:500 dilution in blocking buffer and the cells were allowed to incubate in primary overnight at 4° C. The following day, primary antibody was removed, each well was washed three times with PBS-T, and secondary antibody (1:2000 anti-rabbit AlexaFluor Plus 488 and 1:10,000 Hoechst 33342) was added and allowed to incubate for 60 minutes at room temperature protected from light. After one-hour, secondary antibody was removed and wells were washed four times with PBS-T before imaging on the Opera Phenix. Sixteen fields per well were imaged with a 20× water lens.
Images were quantified in the Columbus Image Data Storage and Analysis software. Cells were identified using the Hoechst nuclear stain to identify individual nuclei. Intensity of the nuclear stain was also used to determine cell viability (Viable cells <30% CV of Hoechst Intensity)

[2] = molecular target: human GSK3β (Homo sapiens (Human), UniProt P49841); assay: pThr231 tau phosphorylation plate-based assay in HEK-huTau cells transfected with GSK3β; format: cell-based; details: GSK3β IC50 undetermined due to toxicity
Sequence of human GSK3β (P49841 whole entry): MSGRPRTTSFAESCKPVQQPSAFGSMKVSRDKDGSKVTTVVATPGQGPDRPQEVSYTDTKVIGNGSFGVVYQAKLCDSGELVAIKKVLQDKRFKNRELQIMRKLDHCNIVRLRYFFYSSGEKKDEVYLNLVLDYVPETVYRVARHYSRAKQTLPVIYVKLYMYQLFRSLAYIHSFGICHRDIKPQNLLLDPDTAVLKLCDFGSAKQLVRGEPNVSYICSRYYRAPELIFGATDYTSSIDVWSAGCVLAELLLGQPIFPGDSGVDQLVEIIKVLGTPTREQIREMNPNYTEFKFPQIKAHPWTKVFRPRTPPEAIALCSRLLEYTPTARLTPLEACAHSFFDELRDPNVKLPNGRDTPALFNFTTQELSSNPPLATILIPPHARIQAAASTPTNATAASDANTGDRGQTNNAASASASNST
Experimental: HEK293 or SH-SY5Y cells were obtained from American Type Culture Collection (ATCC, Manassas, VA) and cultured in Dulbecco's modified Eagle's medium (DMEM) supplemented with 10% fetal bovine serum (FBS), 10 units/ml penicillin, and 10 μg/ml streptomycin (all reagents were purchased from Gibco, Waltham, MA). Cell cultures were maintained in a humidified 5% (v/v) CO2/air environment at 37° C. When the cells reached 50-80% confluence, they were transfected with a complex consisting of a 3:1 ratio of FuGENE 6 Transfection Reagent (Promega, Madison, WI) and plasmid DNA. Plasmid DNA was balanced out across reactions using an empty plasmid so that the same amount of DNA was added per well. This transfection complex was prepared following the manufacturers protocol and added directly to the cell media for 24 or 48 hours prior to lysis.
293T cells stably expressing human 2N4R Tau were transfected with appropriate cDNA plasmids. 24 hours following transfection cells were treated with compound in a 10-point dose-response (from 1000× stocks of compound) and lysates harvested 2 hours later with cell extraction buffer (Life Technologies Cat #BN0001) or RIPA Buffer with Halt protease/phosphatase inhibitors added.
For pThr231 assay: Lysate was diluted 1:100 in assay buffer and Total Tau and pTau T231 was assessed by plate-based ELISA as per manufacturer instructions (MSD Cat #K15121D-1). Total fluorescence was measured using an Envison plate reader.
To test the potency and isoform selectivity of GSK3 small molecule inhibitors, HEK-huTau cells were transfected with plasmids containing either human GSK3α or GSK3β. Twenty-four hours after transfection, compounds were added at a 10-point dose response curve (at a range of 30 μM-3 nM) for a total of 2 hours, and cell lysates were probed for total tau and pThr231 using a plate-based assay.

[3] = Microsomal stability (MIC), mouse; format: in vitro ADME, mouse (CD-1); details: mouse liver microsomes; for half-life at 1 μM: CD-1, read-out: Microsome stability (mouse), in vitro T1/2
Experimental: (§1) Stability of compound in liver microsomes was tested in duplicate by incubating compound at 1 μM for 60 minutes at 37° C. Compound level at 60 minutes was compared to level at 0 minutes, and percent remaining was calculated. Assay Parameters
(§2) Available species: human and mouse (CD-1). Compound requirements: 5 μL of a 10 mM DMSO solution. Incubation time: 60 minutes at 37° C. Test Concentration: 1 μM.
(§3) Microsomes with NADPH without compound-matrix interference. Microsomes plus compound without NADPH—non-enzymatic instability.

[4] = molecular target: GSK3b (GST-full length GSK3b) (Homo sapiens (Human), UniProt P49841); assay: GSK3b TR-FRET kinase assay; format: biochemical; details: GMean, geometric mean
Sequence of GSK3b (GST-full length GSK3b) (P49841 whole entry): as above
In short: (§4)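 Readout: anti-pSer641 Tb antibody/streptavidin-d2 signal after 60 min, expressed as 665/615 ratio and fitted versus log concentration for IC50. Enzyme: 1 nM GST-GSK3 (α or β), compound-preincubated 30 min. Conditions: pH 7.5 Tris buffer with MgCl2, DTT, BSA; ATP at 4 or 2 μM, or 1 mM; 100 min.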

[5] = molecular target: GSK3α (GST-full length GSK3α) (Homo sapiens (Human), UniProt P49840); assay: GSK3α TR-FRET kinase assay; format: biochemical; details: GMean, geometric mean
Sequence of GSK3α (GST-full length GSK3α) (P49840 whole entry): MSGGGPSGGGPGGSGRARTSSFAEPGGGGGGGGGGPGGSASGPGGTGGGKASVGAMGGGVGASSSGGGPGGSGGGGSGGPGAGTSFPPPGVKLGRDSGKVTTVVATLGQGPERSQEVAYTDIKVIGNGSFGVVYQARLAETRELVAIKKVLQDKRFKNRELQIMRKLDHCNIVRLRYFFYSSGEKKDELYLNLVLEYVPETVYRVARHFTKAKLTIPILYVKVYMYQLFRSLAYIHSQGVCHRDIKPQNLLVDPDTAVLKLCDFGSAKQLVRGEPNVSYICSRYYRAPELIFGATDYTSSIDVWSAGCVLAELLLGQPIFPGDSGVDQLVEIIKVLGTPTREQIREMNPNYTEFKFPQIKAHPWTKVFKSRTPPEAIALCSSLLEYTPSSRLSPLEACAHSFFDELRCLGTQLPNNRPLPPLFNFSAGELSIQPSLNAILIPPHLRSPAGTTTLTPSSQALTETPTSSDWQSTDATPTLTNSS
In short: as §4

[6] = Microsomal stability (MIC), human; format: in vitro ADME; details: human liver microsomes
Experimental: as §1, §2, §3

[7] = test system: MDR1-MDCK cell monolayers; assay: MDR1/MDCK assay (blood-brain barrier penetration potential); format: in vitro ADME; details: 5 μM, pH 7.4, 120 minutes; for MDCK permeability (MDR1-MDCK); Mean; Papp (A − B): A to B; for MDCK permeability (MDR1-MDCK); Mean; Papp (B − A): B to A
Experimental: The MDR1/MDCK assay is run at Absorption Systems. This assay is used to determine the blood-brain barrier (BBB) penetration potential of a test compound using MDR1-MDCK cell monolayers. Catalog number EA203.
• Test compound at 5 μM in HBSSg with maximum DMSO concentration not greater than 1%.
• Confluent monolayers of MDR1-MDCK cells, 7 to 11 days old.
• Receiver well with 1% BSA in modified Hanks buffer (HBSSg) • Apical and basolateral side at pH 7.4 • Dose two monolayers in each direction (N=2) • Dose apical side for (A to B) assessment • Dose basolateral side for (B to A) assessment • Sample both apical and basolateral sides at 120 minutes • Determine the concentrations of test compound using a generic LC-MS/MS method with a minimum 4 point calibration curve.
• The quality of the cell monolayer batch is verified using control compounds before monolayers are released for use • The quality of each monolayer used in the assay is verified by a TEER measurement and by calculating the Papp for a control compound.

[8] = GSK3-B (TR-FRET 1 mM ATP), IC50, 1 mM ATP
[9] = GSK3-A (TR-FRET 1 mM ATP), IC50, 1 mM ATP
[10] = read-out: GSK3-B (TR-FRET 1 mM ATP), IC50, 1 mM ATP
[11] = read-out: GSK3-A (TR-FRET 1 mM ATP), IC50, 1 mM ATP

Microsome stability (mouse); in vitro T1/2 [3] [min] | Microsome stability (human); in vitro T1/2 [6] [min] | IC50 [4, 10] [nM] | IC50 [5, 11] [nM] | SMILES | further results
 |  |  |  | N#Cc1ccc2[nH]c(O)c(-c3ccc(CN4CCOCC4)cn3)c2c1 [AZ1080, AZD1080, reference compound] | IC50 ([1]; Homo sapiens, SH-SY5Y cells, 6 hours): 3000 nM
 |  |  |  | CC[C@@]1(c2ccccc2)C2=C(CC(C)(C)CC2=O)Nc2[nH]ncc21 [BRD0705, reference compound] | toxicity of compound in HEK-huTau assay (doses) [2]: > 30 µM; window between potency on tau phosphorylation by GSK3α and concentrations affecting β-catenin stabilization ([1]; HEK-huTau GSK3α vs SH-SY5Y β-catenin): > 5 fold
 |  |  |  | Cc1[nH]nc2c1C1(CN(S(=O)(=O)CC3CC3)C1)C1=C(CC(C)(C)CC1=O)N2 [Compound 107828] | half-life at 1 μM [3]: 6.49 min; IC50 [4, 8]: 100 to 1000 nM; IC50 [5, 9]: ≤ 100 nM
2.084 | 8.877 | 100 to 1000 | 1000 to 5000 | CC(C)(C)Cc1[nH]nc2c1C1(CN(S(=O)(=O)CC3CC3)C1)C1=C(CC3(CCC3)CC1=O)N2 [Compound 107829] | 
0.69 |  | 100 to 1000 | 100 to 1000 | CC(C)(C)Cc1[nH]nc2c1C(C)(c1cccc(S(=O)(=O)CC3CC3)c1)C1=C(CC(C)(C)NC1=O)N2 (stereo not shown) [Compound 108005] | 
 |  |  |  | COc1cncc(F)c1-c1cccc([C@]2(C)C3=C(CC(C)(C)CC3=O)Nc3n[nH]c(CC(C)(C)C)c32)c1 [Compound 108954] | half-life at 1 μM [3]: 8.59 min; IC50 [4, 8]: 100 to 1000 nM; IC50 [5, 9]: 1000 to 5000 nM
 |  |  |  | CC1(C)CC(=O)C2=C(C1)Nc1n[nH]c(C3CC3)c1C21CN(S(=O)(=O)CC2CC2)C1 [Compound 109152] | half-life at 1 μM [3]: 0.97 min; IC50 [4, 8]: 100 to 1000 nM; IC50 [5, 9]: 100 to 1000 nM
6.4 | 12.3 | ≤ 100 | 100 to 1000 | CC(C)(C)Cc1[nH]nc2c1C(C)(c1cccc(S(C)(=O)=O)c1)C1=C(CC(C)(C)CC1=O)N2 (stereo not shown) [Compound 114687] | 
0.5 | 1.4 | 100 to 1000 | 1000 to 5000 | CN1CC2(C3=C(CC(C)(C)CC3=O)Nc3n[nH]c(C4CC(F)(F)C4)c32)c2ccccc21 (stereo not shown) [Compound 119048] | MDCK permeability (MDR1-MDCK); Mean; Papp Ratio (B − A/A − B) (efflux ratio) [7]: 42.3; MDCK permeability (MDR1-MDCK); Mean; Papp (A − B) [7]: 1.65 10^−6 cm/s; MDCK permeability (MDR1-MDCK); Mean; Papp (B − A) [7]: 70 10^−6 cm/s
36 | 26.2 | 100 to 1000 | 1000 to 5000 | CC(C)(C)Cc1[nH]nc2c1C(C)(c1cc(S(C)(=O)=O)ccc1F)C1=C(CC(C)(C)CC1=O)N2 (stereo not shown) [Compound 125976] | MDCK permeability (MDR1-MDCK); Mean; Papp Ratio (B − A/A − B) (efflux ratio) [7]: 301; MDCK permeability (MDR1-MDCK); Mean; Papp (A − B) [7]: 0.2 10^−6 cm/s; MDCK permeability (MDR1-MDCK); Mean; Papp (B − A) [7]: 61.2 10^−6 cm/s
0.6 | 0.6 | 100 to 1000 | 1000 to 5000 | CN1CC2(C3=C(CC(C)(C)CC3=O)Nc3n[nH]c(CC(C)(C)C)c32)c2ccccc21 (stereo not shown) [Compound 125978] | MDCK permeability (MDR1-MDCK); Mean; Papp Ratio (B − A/A − B) (efflux ratio) [7]: 7.49; MDCK permeability (MDR1-MDCK); Mean; Papp (A − B) [7]: 10.8 10^−6 cm/s; MDCK permeability (MDR1-MDCK); Mean; Papp (B − A) [7]: 81.2 10^−6 cm/s
>145 | 104.9 | ≤ 100 | 1000 to 5000 | Cc1ccc(S(C)(=O)=O)cc1C1(C)C2=C(CC(C)(C)CC2=O)Nc2n[nH]c(CC(C)(C)C)c21 (stereo not shown) [Compound 126397] | 
74.5 | >145 | 100 to 1000 | 1000 to 5000 | CC1(C)CC(=O)C2=C(C1)Nc1n[nH]c(C3CC(F)(F)C3)c1C21COc2ccccc21 (stereo not shown) [Compound 127430] | 
